# Source: patent US20050209244A1, “N{5-[4-(4-methyl-piperazino-methyl)-benzoylamido]-2-methylphenyl}-4-(3-pyridyl)-2-pyrimidine-amine coated stents” (priority 2002, published 2005)
# Assays:
# [1] = in conjunction with COMPOUND I
# Description: Data points just spanning the IC50 of the agents alone or in combination are entered into the CalcuSyn program (CalcuSyn, Biosoft, Cambridge UK).
# α-PDGF receptor = α-PDGF receptor (Homo sapiens, UniProt P16234); settings: cited from earlier work
# Kdr = Kdr (Homo sapiens, UniProt P35968); settings: cited from earlier work
# [2] = system: restenotic lesion formation; experiment: Rabbit iliac stent model, restenosis at 28 days; format: in vivo, New Zealand White rabbit
# Description: A combined angioplasty and stenting procedure is performed in New Zealand White rabbit iliac arteries. Iliac artery balloon injury is performed by inflating a 3.0×9.0 mm angioplasty balloon in the mid-portion of the artery followed by “pull-back” of the catheter for 1 balloon length. Balloon injury is repeated 2 times, and a 3.0×12 mm stent is deployed at 6 atm for 30 seconds in the iliac artery. Balloon injury and stent placement is then performed on the contralateral iliac artery in the same manner. A post-stent deployment angiogram is performed. All animals receive oral aspirin 40 mg/day daily as anti-platelet therapy and are fed standard low-cholesterol rabbit chow. Twenty-eight days after stenting, animals are anesthetized and euthanized and the arterial tree is perfused at 100 mmHg with lactated Ringer's for several minutes, then perfused with 10% formalin at 100 mmHg for 15 minutes. The vascular section between the distal aorta and the proximal femoral arteries is excised and cleaned of periadventitial tissue. The stented section of artery is embedded in plastic and sections are taken from the proximal, middle, and distal portions of each stent. All sections are stained with hematoxylin-eosin and Movat pentachrome stains. Computerized planimetry is performed to determine the area of the internal elastic lamina (IEL), external elastic lamina (EEL) and lumen. The neointima and neointimal thickness is measured both at and between the stent struts. The vessel area is measured as the area within the EEL. Data are expressed as mean±SEM. Statistical analysis of the histologic data is accomplished using analysis of variance (ANOVA) due to the fact that two stented arteries are measured per animal with a mean generated per animal. A P<0.05 is considered statistically significant.
# COMPOUND is administered orally by gavage at 30 mg/kg once daily from 3 days prior to stenting until day 27 post-stenting. […] There is extensive neointimal formation in placebo-treated animals at 28 days, with the lesions consisting of abundant smooth muscle cells in proteoglycan/collagen matrix and apparent full endothelial healing. In arterial segments from the animals treated with COMPOUND I, the Intima is well healed, characterized by a compact neointima consisting of smooth muscle cells and endothelium fully covering the lumen surface both over stent struts and between struts.
# c-Met = c-Met (Homo sapiens, UniProt P08581); settings: cited from earlier work
# [3] = system: neointimal lesion formation; experiment: 28 day rat carotid artery balloon injury model; format: in vivo; settings: for percent inhibition of neointimal lesion formation: 28 days post-balloon injury
# Description: Compounds of formula I are tested in the following rat model.
# Rats are dosed orally with placebo or a compound of formula 1. Daily dosing starts 3 days prior to surgery and continues for 31 days. Rat carotid arteries are balloon injured using a method described by Clowes et al., Lab. Invest. 1983;49;208-215. Following sacrifice at 28 days post-balloon Injury, carotid arteries are removed and processed for histologic and morphometric evaluation.
# Tek = Tek (Homo sapiens, UniProt Q02763); settings: cited from earlier work
# Flt-1 = Flt-1 (Homo sapiens, UniProt P17948); settings: cited from earlier work
# Jak-2 = Jak-2 (Homo sapiens, UniProt O60674); settings: cited from earlier work
# [4] = molecular target: receptor for stem cell factor (Homo sapiens, UniProt P10721); settings: cited from earlier work
# β-PDGF receptor = β-PDGF receptor (Homo sapiens, UniProt P09619); settings: cited from earlier work
# Flt-3 = molecular target: T1, Flt-3 (Homo sapiens, UniProt P36888); settings: cited from earlier work
# T1 sequence (P36888 27-993): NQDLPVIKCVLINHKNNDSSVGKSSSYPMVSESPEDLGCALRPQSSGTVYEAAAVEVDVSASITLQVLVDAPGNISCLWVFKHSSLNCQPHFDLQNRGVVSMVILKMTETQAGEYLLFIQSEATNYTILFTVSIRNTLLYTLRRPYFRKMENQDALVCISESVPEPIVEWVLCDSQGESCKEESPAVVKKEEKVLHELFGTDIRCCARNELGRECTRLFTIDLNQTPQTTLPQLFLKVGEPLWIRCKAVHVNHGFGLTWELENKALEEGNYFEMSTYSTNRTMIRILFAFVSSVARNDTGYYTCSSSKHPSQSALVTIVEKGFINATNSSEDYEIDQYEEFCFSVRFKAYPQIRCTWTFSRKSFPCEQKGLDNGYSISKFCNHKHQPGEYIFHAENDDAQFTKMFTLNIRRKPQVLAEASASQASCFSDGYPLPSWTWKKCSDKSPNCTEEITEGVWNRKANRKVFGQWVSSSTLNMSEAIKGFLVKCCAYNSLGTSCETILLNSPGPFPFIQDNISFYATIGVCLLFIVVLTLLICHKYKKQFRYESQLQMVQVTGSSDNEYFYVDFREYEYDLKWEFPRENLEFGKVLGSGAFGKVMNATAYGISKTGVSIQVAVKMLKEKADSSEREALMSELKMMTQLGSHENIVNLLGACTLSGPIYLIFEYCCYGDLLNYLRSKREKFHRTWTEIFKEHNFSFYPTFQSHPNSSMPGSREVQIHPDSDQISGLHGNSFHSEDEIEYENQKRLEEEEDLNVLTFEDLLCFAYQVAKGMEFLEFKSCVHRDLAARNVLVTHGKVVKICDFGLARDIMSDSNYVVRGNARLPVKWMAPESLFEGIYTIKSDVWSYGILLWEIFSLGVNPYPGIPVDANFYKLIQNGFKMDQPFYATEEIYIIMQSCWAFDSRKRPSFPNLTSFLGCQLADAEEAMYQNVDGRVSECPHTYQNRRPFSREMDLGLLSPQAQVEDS
# [5] = system: platelet-derived growth factor (PDGF) receptor; settings: in vitro; cited from earlier work
# [6] = 30 mg/kg orally once daily, 28 days after stenting
# c-Met, sequence (P08581 25-1390): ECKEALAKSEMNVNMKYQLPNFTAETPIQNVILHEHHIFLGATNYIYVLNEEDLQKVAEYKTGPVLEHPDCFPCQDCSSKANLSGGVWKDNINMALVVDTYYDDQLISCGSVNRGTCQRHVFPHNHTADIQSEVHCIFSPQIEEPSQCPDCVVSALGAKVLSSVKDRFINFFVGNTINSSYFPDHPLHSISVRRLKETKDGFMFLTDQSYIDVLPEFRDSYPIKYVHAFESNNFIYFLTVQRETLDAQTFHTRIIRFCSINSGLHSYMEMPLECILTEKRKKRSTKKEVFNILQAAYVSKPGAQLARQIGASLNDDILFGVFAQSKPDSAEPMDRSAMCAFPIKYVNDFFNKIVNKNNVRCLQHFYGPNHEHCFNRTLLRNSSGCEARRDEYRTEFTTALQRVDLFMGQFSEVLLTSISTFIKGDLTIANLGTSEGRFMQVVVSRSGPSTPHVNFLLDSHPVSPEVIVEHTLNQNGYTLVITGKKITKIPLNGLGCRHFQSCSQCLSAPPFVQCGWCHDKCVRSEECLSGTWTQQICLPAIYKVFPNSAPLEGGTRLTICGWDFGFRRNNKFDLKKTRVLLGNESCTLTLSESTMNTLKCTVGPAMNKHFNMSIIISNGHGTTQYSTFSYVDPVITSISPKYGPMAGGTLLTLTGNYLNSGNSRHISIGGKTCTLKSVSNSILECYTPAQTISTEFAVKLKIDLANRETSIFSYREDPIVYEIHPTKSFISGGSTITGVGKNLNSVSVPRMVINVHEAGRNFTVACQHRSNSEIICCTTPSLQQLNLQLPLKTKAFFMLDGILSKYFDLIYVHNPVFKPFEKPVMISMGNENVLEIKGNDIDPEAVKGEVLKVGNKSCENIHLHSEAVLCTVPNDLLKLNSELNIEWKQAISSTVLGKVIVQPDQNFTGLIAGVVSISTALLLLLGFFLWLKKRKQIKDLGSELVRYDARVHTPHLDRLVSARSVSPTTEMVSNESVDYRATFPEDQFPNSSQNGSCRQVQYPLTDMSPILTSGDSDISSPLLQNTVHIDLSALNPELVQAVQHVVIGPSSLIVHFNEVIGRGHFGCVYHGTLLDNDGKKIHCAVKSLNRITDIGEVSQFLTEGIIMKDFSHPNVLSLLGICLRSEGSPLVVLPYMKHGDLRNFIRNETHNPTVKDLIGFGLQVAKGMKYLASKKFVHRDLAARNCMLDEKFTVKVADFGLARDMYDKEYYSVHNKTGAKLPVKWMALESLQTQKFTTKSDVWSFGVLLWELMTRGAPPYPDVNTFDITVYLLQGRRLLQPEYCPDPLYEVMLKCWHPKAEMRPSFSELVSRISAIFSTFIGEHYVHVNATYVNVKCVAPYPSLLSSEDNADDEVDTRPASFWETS
# Jak-2, sequence (O60674 whole entry, species assumed): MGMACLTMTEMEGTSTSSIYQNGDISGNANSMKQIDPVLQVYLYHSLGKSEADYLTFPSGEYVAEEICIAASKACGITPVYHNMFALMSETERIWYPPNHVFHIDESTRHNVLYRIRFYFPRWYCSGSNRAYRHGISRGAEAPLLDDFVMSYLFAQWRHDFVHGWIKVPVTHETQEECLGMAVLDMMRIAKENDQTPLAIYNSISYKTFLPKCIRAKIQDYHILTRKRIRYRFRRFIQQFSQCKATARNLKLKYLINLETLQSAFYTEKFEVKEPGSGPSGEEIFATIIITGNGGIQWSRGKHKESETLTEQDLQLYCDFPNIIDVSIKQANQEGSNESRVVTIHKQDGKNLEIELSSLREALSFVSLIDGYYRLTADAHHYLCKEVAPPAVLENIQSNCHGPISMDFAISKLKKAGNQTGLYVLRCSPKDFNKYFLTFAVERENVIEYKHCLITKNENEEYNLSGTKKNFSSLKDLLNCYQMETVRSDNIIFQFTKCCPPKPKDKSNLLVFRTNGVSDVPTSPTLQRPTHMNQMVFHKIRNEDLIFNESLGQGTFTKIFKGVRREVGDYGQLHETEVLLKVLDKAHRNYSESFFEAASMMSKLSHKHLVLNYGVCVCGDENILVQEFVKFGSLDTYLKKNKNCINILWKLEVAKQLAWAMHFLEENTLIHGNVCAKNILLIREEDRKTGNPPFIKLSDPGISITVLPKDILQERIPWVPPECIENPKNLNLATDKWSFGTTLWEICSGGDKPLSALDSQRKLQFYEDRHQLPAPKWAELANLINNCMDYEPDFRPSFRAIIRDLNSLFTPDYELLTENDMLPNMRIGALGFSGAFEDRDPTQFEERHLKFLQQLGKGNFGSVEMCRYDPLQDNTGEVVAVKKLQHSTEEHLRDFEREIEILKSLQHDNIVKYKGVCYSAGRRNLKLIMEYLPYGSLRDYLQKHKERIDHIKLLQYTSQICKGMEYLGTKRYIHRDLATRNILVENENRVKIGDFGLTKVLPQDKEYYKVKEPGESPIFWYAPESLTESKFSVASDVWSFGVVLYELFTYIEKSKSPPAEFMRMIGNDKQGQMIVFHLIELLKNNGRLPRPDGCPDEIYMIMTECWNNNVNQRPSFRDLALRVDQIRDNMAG
# β-PDGF receptor, sequence (P09619 33-1106): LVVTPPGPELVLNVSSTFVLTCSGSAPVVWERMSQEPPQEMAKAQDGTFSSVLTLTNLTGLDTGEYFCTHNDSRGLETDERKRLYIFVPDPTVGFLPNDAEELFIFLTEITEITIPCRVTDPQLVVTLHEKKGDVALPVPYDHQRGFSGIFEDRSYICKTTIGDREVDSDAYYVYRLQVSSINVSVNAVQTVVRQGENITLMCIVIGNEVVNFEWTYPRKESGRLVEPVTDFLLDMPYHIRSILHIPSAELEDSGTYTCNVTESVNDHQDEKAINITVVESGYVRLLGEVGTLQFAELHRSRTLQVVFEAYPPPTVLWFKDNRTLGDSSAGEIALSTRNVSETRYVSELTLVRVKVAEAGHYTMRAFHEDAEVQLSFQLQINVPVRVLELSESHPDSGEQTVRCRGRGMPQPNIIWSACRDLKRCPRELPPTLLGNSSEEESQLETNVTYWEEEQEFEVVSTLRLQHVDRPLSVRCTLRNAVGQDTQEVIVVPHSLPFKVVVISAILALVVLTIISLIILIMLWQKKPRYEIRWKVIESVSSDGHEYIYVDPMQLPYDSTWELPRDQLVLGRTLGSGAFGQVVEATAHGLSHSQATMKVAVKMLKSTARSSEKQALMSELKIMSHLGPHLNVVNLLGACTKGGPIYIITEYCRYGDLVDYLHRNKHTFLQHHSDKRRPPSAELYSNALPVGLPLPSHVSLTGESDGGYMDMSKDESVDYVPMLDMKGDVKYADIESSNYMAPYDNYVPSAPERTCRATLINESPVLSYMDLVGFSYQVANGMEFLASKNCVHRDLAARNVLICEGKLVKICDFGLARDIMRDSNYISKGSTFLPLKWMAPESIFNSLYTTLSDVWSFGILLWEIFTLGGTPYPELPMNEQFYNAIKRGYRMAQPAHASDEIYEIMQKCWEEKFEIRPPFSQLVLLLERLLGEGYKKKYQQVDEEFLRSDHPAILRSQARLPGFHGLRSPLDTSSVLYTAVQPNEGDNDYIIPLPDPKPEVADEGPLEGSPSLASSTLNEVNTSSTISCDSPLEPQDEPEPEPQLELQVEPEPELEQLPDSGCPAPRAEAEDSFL
# Kdr, sequence (P35968 20-1356, species assumed): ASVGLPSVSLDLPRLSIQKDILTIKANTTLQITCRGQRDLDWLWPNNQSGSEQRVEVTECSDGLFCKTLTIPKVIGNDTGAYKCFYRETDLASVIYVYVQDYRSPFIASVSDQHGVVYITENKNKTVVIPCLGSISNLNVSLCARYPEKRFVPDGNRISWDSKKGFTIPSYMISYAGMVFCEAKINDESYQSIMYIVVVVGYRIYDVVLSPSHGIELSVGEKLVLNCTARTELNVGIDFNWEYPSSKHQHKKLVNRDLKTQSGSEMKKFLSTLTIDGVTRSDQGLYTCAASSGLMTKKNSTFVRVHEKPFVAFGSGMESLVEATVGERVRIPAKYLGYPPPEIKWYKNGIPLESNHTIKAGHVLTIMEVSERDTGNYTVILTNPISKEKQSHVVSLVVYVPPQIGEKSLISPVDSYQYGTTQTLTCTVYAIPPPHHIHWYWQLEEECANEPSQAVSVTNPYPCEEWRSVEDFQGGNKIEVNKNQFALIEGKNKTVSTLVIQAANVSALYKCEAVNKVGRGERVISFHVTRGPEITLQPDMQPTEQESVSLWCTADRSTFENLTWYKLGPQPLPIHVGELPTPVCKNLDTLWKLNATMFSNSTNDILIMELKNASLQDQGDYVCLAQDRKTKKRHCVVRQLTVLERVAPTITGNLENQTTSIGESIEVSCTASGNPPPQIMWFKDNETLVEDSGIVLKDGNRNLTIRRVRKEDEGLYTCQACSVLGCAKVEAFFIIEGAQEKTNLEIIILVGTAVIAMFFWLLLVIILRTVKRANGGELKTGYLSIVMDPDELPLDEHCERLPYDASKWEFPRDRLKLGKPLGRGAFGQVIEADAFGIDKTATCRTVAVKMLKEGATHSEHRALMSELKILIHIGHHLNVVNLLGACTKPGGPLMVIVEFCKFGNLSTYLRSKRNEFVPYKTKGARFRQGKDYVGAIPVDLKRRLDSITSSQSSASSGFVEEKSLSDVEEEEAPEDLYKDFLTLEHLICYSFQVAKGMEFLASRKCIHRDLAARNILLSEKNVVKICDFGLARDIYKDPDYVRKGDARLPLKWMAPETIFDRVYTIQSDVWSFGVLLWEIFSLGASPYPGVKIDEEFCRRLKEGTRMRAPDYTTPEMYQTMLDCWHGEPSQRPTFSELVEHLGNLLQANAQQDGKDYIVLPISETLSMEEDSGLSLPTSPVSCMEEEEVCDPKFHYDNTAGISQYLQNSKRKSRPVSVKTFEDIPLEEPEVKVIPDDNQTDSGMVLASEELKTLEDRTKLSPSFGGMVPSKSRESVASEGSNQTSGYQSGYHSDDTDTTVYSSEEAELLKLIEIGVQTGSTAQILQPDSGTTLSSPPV
structure (smiles),measurement,setting,value
COc1cccc2c1C(=O)c1c(O)c3c(c(O)c1C2=O)C[C@@](O)(C(=O)CO)C[C@@H]3O[C@H]1C[C@H](N)[C@H](O)[C@H](C)O1 [doxorubicin],interaction with COMPOUND I in combination,[1],Slight synergism or synergy
"Cc1ccc(NC(=O)c2ccc(CN3CCN(C)CC3)cc2)cc1Nc1nccc(-c2cccnc2)n1 [COMPOUND I, N-{5-[4-(4-methyl-piperazino-methyl)-benzoylamido]-2-methylphenyl}-4-(3-pyridyl)-2-pyrimidine-amine]",inhibition of kinase activity of α-PDGF receptor,α-PDGF receptor,potently inhibit
same,inhibition of kinase activity of Kdr,Kdr,not
same,EEL area compared with control,[2]; [6],did not result in differences
same,intima healing in arterial segments,[2]; [6],well healed
same,reduction in average neointimal thickness,"[2]; 30 mg/kg orally once daily, 28 days after stenting, vs placebo, P<0.0001",29%
same,reduction in percent arterial stenosis,"[2]; 30 mg/kg orally once daily, 28 days after stenting, vs placebo, P<0.0002",17%
same,reduction in neointimal area,"[2]; 30 mg/kg orally once daily, 28 days after stenting, vs placebo, P<0.04",17%
same,fibrin deposit,"[2]; rabbit iliac arteries, in-stent",reduced
same,inhibition of c-Met,c-Met,no inhibition
same,percent inhibition of neointimal lesion formation,[3]; 0.5 mg/kg oral daily,17%
same,percent inhibition of neointimal lesion formation,[3]; 2.0 mg/kg oral daily,37%
same,neointimal lesion formation at 28 days following balloon injury,"[3]; oral daily, dose of from 0.2 to 3.5 mg, preferably 0.5 to 2.0 mg/kg",significantly reduce
same,inhibition of kinase activity of Tek,Tek,not
same,inhibition of kinase activity of Flt-1,Flt-1,not
same,inhibition of Jak-2,Jak-2,no inhibition
same,inhibition of kinase activity of the receptor for stem cell factor,[4],potently inhibit
same,inhibition of kinase activity of β-PDGF receptor,β-PDGF receptor,potently inhibit
same,inhibition of kinase activity of Flt-3,Flt-3,not
same,inhibition of PDGF receptor tyrosine kinase,[5],selectively inhibits
"CC(=O)O[C@H]1C(=O)[C@@]2(C)[C@H]([C@H](OC(=O)c3ccccc3)[C@]3(O)C[C@H](OC(=O)[C@H](O)[C@@H](NC(=O)c4ccccc4)c4ccccc4)C(C)=C1C3(C)C)[C@]1(OC(C)=O)CO[C@@H]1C[C@@H]2O [Taxol, taxol]",interaction with COMPOUND I in combination,[1],Slight synergism or synergy
"CC[C@]1(O)C[C@@H]2CN(CCc3c([nH]c4ccccc34)[C@@](C(=O)OC)(c3cc4c(cc3OC)N(C)[C@H]3[C@@](O)(C(=O)OC)[C@H](OC(C)=O)[C@]5(CC)C=CCN6CC[C@]43[C@@H]65)C2)C1 [Vinblastine, vinblastine]",interaction with COMPOUND I in combination,[1],Slight synergism or synergy
